Literature values, collected in patent publication US20260116929A1, “ANTI-GRAM-NEGATIVE BACTERIAL COMPOUND” (Murata Manufacturing Co., Ltd., priority 2018, published 2026).

What was measured:
Conditions in all cases: background statement
gram-negative bacteria = test system: gram-negative bacteria
gram-positive bacteria = test system: gram-positive bacteria
Vibrio parahaemolyticus = test system: Vibrio parahaemolyticus

Row | Compound | antimicrobial activity against gram-negative bacteria (gram-negative bacteria) | antimicrobial activity against gram-positive bacteria (gram-positive bacteria) | antimicrobial activity against Vibrio parahaemolyticus (Vibrio parahaemolyticus)
1 | C=C1NC(=O)CC[C@@H](C(=O)O)NC(=O)[C@H](NC(=O)[C@H](CCCCN)NC(=O)[C@@H](N)Cc2c[nH]c3ccccc23)CSC[C@@H](C(=O)N[C@@H]2C(=O)N3CCC[C@H]3C(=O)NCC(=O)N[C@H](C(=O)N[C@H](C(=O)N[C@@H]3C(=O)NCC(=O)N[C@@H](C)C(=O)N[C@@H](CC(C)C)C(=O)N[C@@H](CCC(N)=O)C(=O)N/C(=C/C)C(=O)N[C@H](C(=O)N[C@@H](Cc4ccccc4)C(=O)N[C@@H](CC(C)C)C(=O)N[C@@H](CCC(N)=O)C(=O)N[C@@H]4C(=O)N[C@@H](CC(C)C)C(=O)N[C@H]5C(=O)N[C@@H](CSC4C)C(=O)NC(=O)[C@H](CC(N)=O)N[C@H](C(=O)N[C@@H](CCCCN)C(=O)N[C@H](C(=O)NC(=C)C(=O)N[C@@H](CCCCN)C(=O)O)[C@@H](C)CC)CSC5C)CSC3C)C(C)C)CSC2C)N[C@@H](CC(C)C)C(=O)NC1=O (stereo partly shown) [subtilin] | not | have antimicrobial activities | –
2 | Nisin | not | has an antimicrobial activity | no antimicrobial activity
3 | entianin | not | have antimicrobial activities | –
